According to patent US20230094176A1, “COMPOUNDS AND METHODS FOR IMPROVING IMPAIRED ENDOGENOUS FIBRINOLYSIS USING HISTONE DEACETYLASE INHIBITORS” (Cereno Scientific AB, priority 2011, published 2023):
Read-outs that look alike come from different tables or passages of the source.

What was measured:
[1] = cited from earlier work
E-selectin = experiment: Regulation of E-selectin expression in endothelial cells; assay type: cell-based; conditions: endothelial cell gene expression
t-PA mRNA in HUVECs = experiment: C100: dose giving a 100% increase of t-PA mRNA in HUVEC (24 h); assay type: cell-based, human
Method: HUVECs are treated with different concentrations of first generation hydroxamates (TSA), second generation hydroxamates (Givinostat, Vorinostat, Belinostat, Panobinostat, SB939, PCI24781), benzamides (Mocetinostat, Entinostat) or short chain fatty acids (SCFA, Butyrate, Phenylbutyrate) for 24 h and t-PA mRNA was measured. The doses giving a 100% increase of t-PA mRNA (C100) was determined and compared to the maximum plasma concentration (Cmax) achieved when the maximum tolerated dose (MTD) of each substance is administered to humans, by dividing the C100 with the Cmax. […] In the table below the values for MTD and Cmax are from the following references (mentioned in the same order as in the table): Steele, N. L. et al Cancer Chemother Pharmacol 67(6):1273-9 (2011), Kelly, K. K. et al J Clin Oncol 23:3923-3931 (2005), Furlan, A. et al Mol Med 17(5-6) 353-362 (2011), Fukutomi, A. et al Invest New Drugs 2011 Apr. 12, Yong, W. P. et al Ann Oncol 22(11) 2516-22 (2011), Garcia-Manero, G. et al. Blood 112: 981-989 (2008), Ryan, Q. C. et al J Clin Oncol 23(17): 3912-3922 (2005), Edelman, M. J. et al Cancer Chemother Pharmacol 51: 439-444, http://www.drugs.com/pro/buphenyl.html *Butyrate was administered in the prodrug form tributyrin.

[2] = system: t-PA mRNA in endothelial cells; experiment: VPA dose-response on t-PA in the absence or presence of high TNF-alpha (10 ng/ml); assay type: cell-based, human
Method: In an attempt to mimic the potentially highly inflamed conditions in the local microenvironment surrounding an atherosclerotic plaque, endothelial cells were exposed to a high concentration (10 ng/ml) of TNF-alpha for 24 hours and then VPA was added for an additional 24 h. Cells were treated and mRNA prepared as described in example 1.

patients with epilepsy = conditions: cited from earlier work
[3] = system: TNF-a suppressed t-PA mRNA in HUVECs; experiment: TNF-alpha suppression of t-PA mRNA in HUVEC: anti-inflammatory substances versus Givinostat; assay type: cell-based, human
Method: HUVECs were treated with TNF-alpha (TNF-a) for 1 h and then optimal concentrations of the anti.inflammatory substances acetylsalicylic acid (ASA, 1 mM) and ibuprofen (IBU, 1 mM) was added. Givinostat was also added to the cells for comparison. Cells were harvested and t-PA mRNA levels analysed according to example 1.

[4] = maximum plasma concentration when the MTD is administered to humans

For `O=C(/C=C/c1cccc(S(=O)(=O)Nc2ccccc2)c1)NO` [Belinostat], the MTD ([1]; bidaily, oncology treatment or trials) is listed as 1000 mg bidaily, the Cmax [1, 4] is listed as 4000 nM and the “Cmax (ng/ml)” value [1, 4] is listed as ~1400 ng/mL. For the same compound, the “regulation of E-selectin expression” value (E-selectin) was “almost no effect” and the “C100 tPA” value (t-PA mRNA in HUVECs) was 0.2 µM.
For `CCCC(CCC)C(=O)O` [VPA, valproic acid], the “regulation of E-selectin expression” value (E-selectin) was “almost no effect”, the “maximum efficacy in inducing t-PA” value ([2]; TNF-alpha (10 ng/ml) treated cells) was “about 50 fold” and the “maximum efficacy in inducing t-PA” value ([2]; control cells (no TNF-alpha)) was “about 10 fold”. The “lowering of the risk of atherothrombotic events” value (patients with epilepsy; patients with epilepsy (Olesen et al 2010)) was “up to 40%” and the “plasma levels typically obtained during anticonvulsive treatment” value (patients with epilepsy; patients, anticonvulsive VPA treatment) was 350000 to 850000 nM.
For `CCN(CC)Cc1ccc2cc(COC(=O)Nc3ccc(C(=O)NO)cc3)ccc2c1.Cl` [Givinostat], the MTD ([1]; humans, literature) is given as 200 mg, the Cmax [1, 4] is given as 650 nM and the “Cmax (ng/ml)” value [1, 4] is given as 300 ng/mL. For the same compound, the MTD ([1]; once daily, in healthy volunteers) was 200 mg once daily, the “regulation of E-selectin expression” value (E-selectin) was “strongly suppresses expression” and the “increase of t-PA” value ([3]; HUVEC treated with TNF-a) was 9 fold. The “effect on TNF-a mediated suppression of t-PA expression” value ([3]; HUVEC, TNF-a 1 h then substance, ASA 1 mM, IBU 1 mM) was “completely reverse” and the “C100 tPA” value (t-PA mRNA in HUVECs) was 0.05 µM.
For `O=C(CCCCCCC(=O)Nc1ccccc1)NO` [Vorinostat], the MTD ([1]; humans, literature) is given as 200 mg b.i.d, the “Cmax (ng/ml)” value ([1]; in vivo) is given as 300 ng/mL and the Cmax [1, 4] is given as 1100 nM. The MTD ([1]; once daily, oncology treatment or trials) was 400 mg once daily and the “C100 tPA” value (t-PA mRNA in HUVECs) was 0.1 µM.
For `Nc1ccccc1NC(=O)c1ccc(CNc2nccc(-c3cccnc3)n2)cc1` [Mocetinostat], the Cmax ([1]; in vivo) is given as 500 nM, the “Cmax (ng/ml)” value ([1]; in vivo) is given as 200 ng/mL and the “regulation of E-selectin expression” value (E-selectin) is given as “strongly induces expression”. For the same compound, the “C100 tPA” value (t-PA mRNA in HUVECs) was 0.1 µM.
